For orientation: EC50 means the concentration giving half of the maximal effect.

Assay [1] deals with Leishmania donovani axenic amastigote parasites. Put plainly: Leishmania donovani axenic amastigote proliferation assay. The conditions noted are these: axenic amastigotes in vitro, read-out: L. donovani amastigotes EC50. The class given is cell-based. Put shortly:
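EC50 values come from CellTiter-Glo luminescence after 2-day compound exposure of axenic amastigotes (9600 per well) at 37 °C, 5% CO2. Medium: RPMI 1640, 20% heat-inactivated FBS, folic acid, adenosine, D-glucose, 25 mM MES, adjusted to pH 5.5.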

Assay [2] concerns Trypanosoma brucei Lister 427 strain bloodstream form. Put plainly: Assay for proliferation of kinetoplastid parasite Trypanosoma brucei. The conditions noted are these: Lister 427 bloodstream form, 48 hours, read-out: T. brucei EC50. It is filed as cell-based. The source says:
Assay for Proliferation of Kinetoplastid Parasite Trypanosoma brucei.
The proliferation is quantified by the addition of Cell Titer Glo (Promega®) a luminescent cell viability assay that measures the number of viable cells in culture based on the quantification of cellular ATP amount, which is an indicator of metabolically active cells.
The following assay illustrates the invention without in any way limiting the scope of the invention. This parasite proliferation assay measures the increase in parasite growth using an assay that measures ATP activity, Cell Titer Glo®.
Trypanosoma brucei Lister 427 strain is grown in HMI-9 Trypanosome media for T. brucei bloodstream form. 30 μl of HMI-9 media is dispensed into 384 well assay plates. 200 nl of compounds of the invention (in DMSO), including anti-trypanosome controls (Pentamidine and suramin), are then transferred into the assay plates, as well as DMSO alone to serve as a negative control for inhibition. Then 25 μl of a suspension of T. brucei culture in HMI-9 media is dispensed into the assay plates. The final concentration of parasites in culture corresponds to 1.7% of 0.5 uM ATP activity with Cell Titer Glo® in HMI-9 media. The plates are placed in a 37° C. incubator for 48 hours in an atmospheric environment containing 5% CO2. 40 μl of Cell Titer Glo® is dispensed into the plates. The plates are then read for luminescence. The percentage inhibition of 50%, EC50, is calculated for each compound.

Assay [3] relates to L. donovani HU3 strain in mouse peritoneal macrophages. Nature of the assay: Assay for proliferation of Leishmania parasites in mouse peritoneal macrophages. The conditions noted are these: Leishmania donovani, Peritoneal macrophage, read-out: L. donavani Macrophage EC50. The class given is cell-based, Leishmania donovani. The gist of the method:
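EC50 derives from counting SYBR Green-stained parasite nuclei by high-content imaging after 5 days' compound exposure. Host cells were uninfected BALB/c peritoneal macrophages, infected for 24 h before dosing with spleen-derived L. donovani HU3 parasites from mice infected 9–11 weeks.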

Turning to `COc1ccc(C(C)C(=O)Nc2ccc(Cl)c(-c3nc4ncc(C)cc4[nH]3)c2)cc1` (stereo not drawn) [Compound 165], the figures for the EC50 in assay [1], in assay [2] and in assay [3] were more than 24.5 µM, more than 11.7 µM and 23.1 µM, respectively.

With `Cc1cnc2nc(-c3cc(NC(=O)c4ccc(-c5cnccn5)cn4)ccc3Cl)[nH]c2c1` [Compound 166], the figures for the half-maximal effective concentration (EC50) in assay [1], in assay [2] and in assay [3] were more than 25 µM, more than 25 µM and more than 27.8 µM, respectively.

For the compound `Cc1ccc(CC(=O)Nc2ccc(Cl)c(-c3nc4ncc(C)cc4[nH]3)c2)cc1` [Compound 167], the concentration giving a half-maximal response (EC50) in assay [1] is more than 25 µM; in assay [2], more than 11.5 µM; in assay [3], 16.1 µM.

In the case of `Cc1cnc2nc(-c3cc(NC(=O)Cn4cccnc4=O)ccc3Cl)[nH]c2c1` [Compound 168], the EC50 in assay [1] was more than 25 µM; in assay [2], more than 16.7 µM; in assay [3] it was more than 50 µM.

On to `Cc1cnc2nc(-c3cc(NC(=O)Cc4nnn[nH]4)ccc3Cl)[nH]c2c1` [Compound 169], for which the concentration giving a half-maximal response (EC50) in assay [1] is more than 25 µM; in assay [2] it was more than 25 µM; in assay [3], more than 50 µM.

With `Cc1cnc2nc(-c3cc(NC(=O)Cn4cnnn4)ccc3Cl)[nH]c2c1` [Compound 170], the 50% effective concentration (EC50) in assay [1] was more than 25 µM; in assay [2] it was more than 25 µM; in assay [3] it was more than 50 µM.

In the case of `Cc1ccnc(C(=O)Nc2ccc(Cl)c(-c3nc4ncc(C)cc4[nH]3)c2)c1` [Compound 172], the figures for the EC50 in assay [1], in assay [2] and in assay [3] were more than 25 µM, more than 15.8 µM and 23.7 µM, respectively.

On to `COc1ccnc(C(=O)Nc2ccc(Cl)c(-c3nc4ncc(C)cc4[nH]3)c2)c1` [Compound 173], for which the values for the EC50 in assay [1], in assay [2] and in assay [3] were more than 25 µM, more than 13.8 µM and 18.1 µM, respectively.

Consider `Cc1cnc2nc(-c3cc(NC(=O)c4cnco4)ccc3Cl)[nH]c2c1` [Compound 177], for which the values for the 50% effective concentration (EC50) in assay [1], in assay [2] and in assay [3] were 2.28 µM, 1.66 µM and more than 50 µM, respectively.

Turning to `Cc1cnc2nc(-c3cc(NC(=O)c4cnc(C)cn4)ccc3Cl)[nH]c2c1` [Compound 178], the EC50 was 23.8 µM in assay [1], 15.2 µM in assay [2] and more than 50 µM in assay [3].

Consider `Cc1cnc2nc(-c3cc(NC(=O)c4nc(C)oc4C)ccc3Cl)[nH]c2c1` [Compound 179], for which the concentration for a half-maximal effect (EC50) in assay [1] is more than 25 µM; in assay [2], 5 µM; in assay [3] it was more than 50 µM.

With `Cc1cnc2nc(-c3cc(NC(=O)c4cccc5c4OCC5)ccc3Cl)[nH]c2c1` [Compound 180], the results for the EC50 in assay [1], in assay [2] and in assay [3] were more than 25 µM, 8.3 µM and 13.2 µM, respectively.

Consider `CO[C@@H](C(=O)Nc1ccc(Cl)c(-c2nc3ncc(C)cc3[nH]2)c1)c1ccccc1` [Compound 181], for which the EC50 in assay [1] was more than 25 µM; in assay [2] it was more than 14.5 µM; in assay [3], more than 30.5 µM.

In the case of `Cc1cnc2nc(-c3cc(NC(=O)c4cccc(N(C)C)c4)ccc3Cl)[nH]c2c1` [Compound 184], the EC50 in assay [1] was more than 25 µM; in assay [2], 8.4 µM; in assay [3] it was more than 50 µM.

With `Cc1cnc2nc(-c3cc(NC(=O)c4ccc(C(C)(C)C)o4)ccc3Cl)[nH]c2c1` [Compound 190], the values for the EC50 in assay [1], in assay [2] and in assay [3] were more than 24 µM, 5.8 µM and 20.2 µM, respectively.

Consider `Cc1cnc2nc(-c3cc(NC(=O)c4sc(C)nc4C)ccc3Cl)[nH]c2c1` [Compound 191], for which the values for the EC50 in assay [1], in assay [2] and in assay [3] were more than 25 µM, more than 16.2 µM and more than 39.1 µM, respectively.

Consider `Cc1cnc2nc(-c3cc(NC(=O)c4nccs4)ccc3Cl)[nH]c2c1` [Compound 192], for which the EC50 in assay [1] was 10.2 µM; in assay [2] it was 0.49 µM; in assay [3] it was more than 37.9 µM.

With `Cc1cnc2nc(-c3cc(NC(=O)c4ccc(S(C)(=O)=O)cc4)ccc3Cl)[nH]c2c1` [Compound 193], the 50% effective concentration (EC50) was more than 25 µM in assay [1], 15.2 µM in assay [2] and more than 50 µM in assay [3].

As to `Cc1cnc2nc(-c3cc(NC(=O)C(C)(C)N)ccc3Cl)[nH]c2c1` [Compound 194], the EC50 in assay [1] is more than 25 µM; in assay [2] it was more than 11.7 µM; in assay [3], more than 50 µM.

For the compound `Cc1cnc2nc(-c3cc(NC(=O)c4cc(Cl)cc(Cl)c4)ccc3Cl)[nH]c2c1` [Compound 196], the results for the EC50 in assay [1], in assay [2] and in assay [3] were more than 25 µM, 11.2 µM and 11 µM, respectively.

Turning to `Cc1cnc2nc(-c3cc(NC(=O)Cn4ccnc4)ccc3Cl)[nH]c2c1` [Compound 197], the EC50 in assay [1] is more than 25 µM; in assay [2], more than 22.3 µM; in assay [3], more than 50 µM.

`Cc1cnc2nc(-c3cc(NC(=O)C4CCc5ccccc5O4)ccc3Cl)[nH]c2c1` (stereo not drawn) [Compound 198]: the EC50 in assay [1] was more than 25 µM; in assay [2], 8.4 µM; in assay [3] it was more than 28.7 µM.

In the case of `Cc1cnc2nc(-c3cc(NC(=O)C4CCCC4)ccc3Cl)[nH]c2c1` [Compound 199], the results for the EC50 in assay [1], in assay [2] and in assay [3] were 23.7 µM, 4.4 µM and 21.5 µM, respectively.

As to `Cc1cnc2nc(-c3cc(NC(=O)C4(C)CNC4)ccc3Cl)[nH]c2c1` [Compound 200], the EC50 in assay [1] is more than 25 µM; in assay [2], more than 9.6 µM; in assay [3] it was more than 50 µM.

`Cc1cnc2nc(-c3cc(NC(=O)Cc4ccccc4)ccc3Cl)[nH]c2c1` [Compound 202]: the EC50 in assay [1] was more than 25 µM; in assay [2], 1.87 µM; in assay [3], more than 50 µM.

For the compound `Cc1cnc2nc(-c3cc(NC(=O)c4nc(C)n[nH]4)ccc3Cl)[nH]c2c1` [Compound 203], the EC50 was more than 25 µM in assay [1], more than 25 µM in assay [2] and more than 50 µM in assay [3].

For the compound `Cc1cnc2nc(-c3cc(NC(=O)c4cscn4)ccc3Cl)[nH]c2c1` [Compound 205], the values for the half-maximal effective concentration (EC50) in assay [1], in assay [2] and in assay [3] were 14.3 µM, 1.26 µM and more than 46.3 µM, respectively.

For `Cc1cnc2nc(-c3cc(NC(=O)c4cnccn4)ccc3Cl)[nH]c2c1` [Compound 206], the figures for the half-maximal effective concentration (EC50) in assay [1], in assay [2] and in assay [3] were 1.56 µM, 0.174 µM and 13.4 µM, respectively.

`Cc1cnc2nc(-c3cc(NC(=O)c4cncn4C)ccc3Cl)[nH]c2c1` [Compound 207]: the 50% effective concentration (EC50) was more than 25 µM in assay [1], more than 25 µM in assay [2] and more than 50 µM in assay [3].

With `Cc1cnc2nc(-c3cc(NC(=O)c4cccnc4)ccc3Cl)[nH]c2c1` [Compound 208], the figures for the EC50 in assay [1], in assay [2] and in assay [3] were 8.7 µM, 2.48 µM and more than 32.7 µM, respectively.

On to `Cc1csc(C(=O)Nc2ccc(Cl)c(-c3nc4ncc(C)cc4[nH]3)c2)c1` [Compound 209], for which the EC50 in assay [1] was 7.9 µM; in assay [2], 1.41 µM; in assay [3], 10.4 µM.

On to `Cc1cnc2nc(-c3cc(NC(=O)c4ccncc4)ccc3Cl)[nH]c2c1` [Compound 212], for which the results for the concentration for a half-maximal effect (EC50) in assay [1], in assay [2] and in assay [3] were 6.6 µM, 2.65 µM and 22.5 µM, respectively.

With `Cc1cnc2nc(-c3cc(NC(=O)c4ccnn4C)ccc3Cl)[nH]c2c1` [Compound 213], the EC50 is more than 25 µM in assay [1], more than 25 µM in assay [2] and more than 48 µM in assay [3].

`CCOC(=O)Nc1ccc(Cl)c(-c2nc3ncc(C)cc3[nH]2)c1` [Compound 217]: the EC50 was found to be 5.9 µM in assay [1], 0.8 µM in assay [2] and 10.4 µM in assay [3].

As for `Cc1cnc2nc(-c3cc(NC(=O)OCC(C)C)ccc3Cl)[nH]c2c1` [Compound 220], the values for the EC50 in assay [1], in assay [2] and in assay [3] were 7.4 µM, 1.66 µM and 17.3 µM, respectively.
